Data: US20080269237A1, “CARBAMIC ACID COMPOUNDS COMPRISING A PIPERAZINE LINKAGE AS HDAC INHIBITORS” (TOPOTARGET UK LIMITED, priority 2002, published 2008)

How the values were obtained:
[1] = test system: NHEK-Ad (primary human adult keratinocyte line); experiment: Secondary assay: cell proliferation inhibition WST-1, NHEK-Ad; assay type: cell-based; details: Homo sapiens, Keratinocyte, 48 h, read-out: Cell Proliferation Inhibition WST-1 (IC50 unless otherwise specified) NHEK-AD
Description: (§1) Compounds with HDAC inhibition activity, as determined using the primary assay, were subsequently evaluated using secondary cell-based assays. The following cell lines were used:
(§2) HeLa—Human cervical adenocarcinoma cell line (ATCC ref. No. CCL-2). K11—HPV E7 transformed human keratinocyte line provided by Pidder Jansen-Duerr, Institut für Biomedizinische Altemsforschung, Innsbruck, Austria. NHEK-Ad—Primary human adult keratinocyte line (Cambrex Corp., East Rutherford, N.J., USA).
(§3) Cells were plated in 96-well plates at 3-10×10^3 cells/well in 100 μL of culture medium. The following day, different concentrations of candidate compounds were added and the cells incubated at 37° C. for 48 h. Subsequently, 10 μL/well of WST-1 reagent was added and the cells reincubated for 1 hour. After the incubation time, absorbance was measured.
WST-1 is a tetrazolium salt which is cleaved to formazan dye by cellular enzymes. […] The formazan dye produced is quantified by a scanning multiwell spectrophotometer by measuring the absorbance of the dye solution at 450 nm wavelength (reference wavelength 690 nm).
Percent activity (% activity) in reducing the number of viable cells was calculated for each test compound as: […]
(§4) IC50 values were calculated using the software package Prism 3.0 (GraphPad Software Inc., San Diego, Calif.), setting top value at 100 and bottom value at 0.

[2] = test system: JURKAT (human T-cell line); experiment: Secondary assay: cell proliferation inhibition WST-1, Jurkat; assay type: cell-based; details: Homo sapiens, 48 h, read-out: Cell Proliferation Inhibition WST-1 (IC50 unless otherwise specified) Jurkat
[3] = biological target: mouse HDAC2 (Mus musculus, UniProt P70288); experiment: biochemical
Description: Briefly, this assay relies on the release of radioactive acetate from a radioactively labelled histone fragment by the action of HDAC enzyme. Test compounds, which inhibit HDAC, reduce the yield of radioactive acetate. Signal (e.g., scintillation counts) measured in the presence and absence of a test compound provide an indication of that compound's ability to inhibit HDAC activity. Decreased activity indicates increased inhibition by the test compound. […]
After purification of the radiolabelled histone fragment, it was incubated with a source of HDAC (e.g., an extract of HeLa cells (a rich source of HDAC), recombinantly produced HDAC1 or HDAC2) and any released acetate was extracted into an organic phase and quantitatively determined using scintillation counting. By including a test compound with the source of HDAC, that compound's ability to inhibit the HDAC was determined. […]
A source of HDAC (e.g., 2 μL of crude HeLa extract, 5 μL of HDAC1 or HDAC2; in elution buffer, as above) was incubated with 3 μL of radioactively labelled peptide along with appropriate dilutions of candidate compounds (1.5 μL) in a total volume of 150 μL of buffer (20 mM Tris pH 7.4, 10% glycerol). […] Radioactivity was measured using a Tri-Carb 2100TR Liquid Scintillation Analyzer (Packard). […]

[4] = test system: K11 (HPV E7 transformed human keratinocyte line); experiment: Secondary assay: cell proliferation inhibition WST-1, K11; assay type: cell-based; details: Homo sapiens, Keratinocyte, 48 h, read-out: Cell Proliferation Inhibition WST-1 (IC50 unless otherwise specified) K11
Description: as §1, §2, §3
(§5) WST-1 is a tetrazolium salt which is cleaved to formazan dye by cellular enzymes. An expansion in the number of viable cells results in an increase in the overall activity of mitochondrial dehydrogenases in the sample. This augmentation in the enzyme activity leads to an increase in the amount of formazan dye formed, which directly correlates to the number of metabolically active cells in the culture. The formazan dye produced is quantified by a scanning multiwell spectrophotometer by measuring the absorbance of the dye solution at 450 nm wavelength (reference wavelength 690 nm).
(§6) Percent activity (% activity) in reducing the number of viable cells was calculated for each test compound as:
(§7) % activity={(S^C−B)/(S^o−B)}×100
as §4

[5] = test system: HeLa cells; experiment: Secondary assay: cell proliferation inhibition WST-1, HeLa; assay type: cell-based; details: Homo sapiens, 48 h, read-out: Cell Proliferation Inhibition WST-1 (IC50 unless otherwise specified) HeLa
Description: as §1, §2, §3, §5, §6, §7, §4

Sequence of mouse HDAC2 (P70288 whole entry, the tested form may be a part): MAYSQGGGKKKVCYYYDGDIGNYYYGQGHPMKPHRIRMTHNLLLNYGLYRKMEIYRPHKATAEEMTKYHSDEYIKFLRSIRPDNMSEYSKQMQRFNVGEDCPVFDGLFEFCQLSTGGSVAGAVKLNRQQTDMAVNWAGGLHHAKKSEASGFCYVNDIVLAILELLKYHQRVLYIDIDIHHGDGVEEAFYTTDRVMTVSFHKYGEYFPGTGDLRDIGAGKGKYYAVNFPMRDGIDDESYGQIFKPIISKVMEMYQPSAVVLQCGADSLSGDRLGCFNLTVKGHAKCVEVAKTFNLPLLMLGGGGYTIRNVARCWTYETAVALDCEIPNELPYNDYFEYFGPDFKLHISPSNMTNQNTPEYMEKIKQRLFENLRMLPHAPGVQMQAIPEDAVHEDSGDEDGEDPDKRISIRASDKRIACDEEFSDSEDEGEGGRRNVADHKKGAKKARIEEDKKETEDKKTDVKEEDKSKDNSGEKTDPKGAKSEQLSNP

Q: What does the source list for `CC(/C=C/C(=O)NO)=C\[C@@H](C)C(=O)c1ccc(N(C)C)cc1` [TSA, Trichostatin A, reference compound]?
A: IC50 [1]: 200 nM; IC50 [2]: 42 nM; IC50 [3]: 17 nM; IC50 [4]: 380 nM; IC50 [5]: 350 nM
